Among the data in PubChem BioAssay (NCI) are TGI values, retold here.

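Method: 48-hour compound exposure of cells in 96-well plates, five concentrations, linear interpolation of endpoints. Definition used: TGI = concentration required for complete inhibition of growth.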 Some results are limits rather than exact numbers.

Test systems include BT-549 breast; NCI-H226 lung; MDA-MB-435; HS 578T breast; OVCAR-8 ovarian; HCT-15 colon; UACC-257 melanoma; DU-145 prostate; RPMI-8226 leukemia; MALME-3M melanoma; MDA-N; T-47D breast; SK-OV-3 ovarian; IGROV1 ovarian; SK-MEL-5 melanoma; HOP-62 NSCLC; HCT-116 colon; SNB-19 CNS; HOP-92 NSCLC; MCF7 breast.
Common to all, as to test: NCI anticancer screen, dose series, 48 h

Consider `CCOC(=O)c1nnsc1NN=C(C)C`, for which the TGI in the assay with BT-549 breast, in the assay on NCI-H226 lung, in the assay on MDA-MB-435, in the assay with HS 578T breast, in the assay with OVCAR-8 ovarian and with HCT-15 colon was greater than 100 µM each time. Moreover, the TGI with UACC-257 melanoma, in the assay on DU-145 prostate, with RPMI-8226 leukemia, in the assay with MALME-3M melanoma, with MDA-N and in the assay with T-47D breast was greater than 100 µM in each case. The TGI in the assay on SK-OV-3 ovarian, in the assay with IGROV1 ovarian, in the assay on SK-MEL-5 melanoma, in the assay on HOP-62 NSCLC and in the assay with HCT-116 colon was greater than 100 µM in each case.
On to `COC(=O)C(Cc1c(C2Nc3ccccc3C2CC(NC(C)=O)C(=O)OC)[nH]c2ccccc12)NC(C)=O` (configuration not stated), for which the TGI in the assay on BT-549 breast, in the assay with NCI-H226 lung, with MDA-MB-435, in the assay with HS 578T breast, in the assay on OVCAR-8 ovarian and in the assay with HCT-15 colon was greater than 100 µM each time. Also, the TGI in the assay on UACC-257 melanoma, in the assay on DU-145 prostate, in the assay on SNB-19 CNS, in the assay on RPMI-8226 leukemia, with MALME-3M melanoma and in the assay on MDA-N was greater than 100 µM in each case. For the same molecule, the TGI in the assay on T-47D breast, in the assay on SK-OV-3 ovarian, with IGROV1 ovarian, in the assay with SK-MEL-5 melanoma, with HOP-62 NSCLC and in the assay on HOP-92 NSCLC was greater than 100 µM in each case. In the assay with HCT-116 colon, the TGI is greater than 100 µM.
Regarding `CC1C2(C)OC(=N)C(C#N)(C(C)O2)C1(C#N)C#N` (configuration not stated), the TGI was 92.5 µM with BT-549 breast; greater than 100 µM in the assay with NCI-H226 lung; 61.9 µM in the assay with MCF7 breast; greater than 100 µM in the assay on HS 578T breast; greater than 100 µM with OVCAR-8 ovarian; 28.8 µM in the assay on HCT-15 colon. The TGI in the assay with UACC-257 melanoma is 46 µM; in the assay on DU-145 prostate, 87 µM; with MALME-3M melanoma it was 62.3 µM; in the assay on MDA-N, 36.1 µM; in the assay with T-47D breast, greater than 100 µM; in the assay with SK-OV-3 ovarian, greater than 100 µM. Also, the TGI in the assay with IGROV1 ovarian was greater than 100 µM; in the assay on SK-MEL-5 melanoma, 25.8 µM; with HOP-92 NSCLC, 37.6 µM; in the assay with HCT-116 colon, 65 µM.
For `CC(C)[Si](OC1=C(C(=O)N(C)c2ccccc2Cl)CCCCC1)(C(C)C)C(C)C`, the TGI in the assay on BT-549 breast, in the assay on NCI-H226 lung, in the assay on MDA-MB-435, in the assay on OVCAR-8 ovarian, in the assay with HCT-15 colon and in the assay on UACC-257 melanoma was greater than 100 µM throughout. For the same molecule, the TGI in the assay with DU-145 prostate, in the assay with SNB-19 CNS, in the assay with RPMI-8226 leukemia, in the assay with MALME-3M melanoma, in the assay with MDA-N and in the assay on T-47D breast was greater than 100 µM in each case. In addition, the TGI in the assay on SK-OV-3 ovarian, with IGROV1 ovarian, in the assay on SK-MEL-5 melanoma, with HOP-62 NSCLC, in the assay with HOP-92 NSCLC and in the assay with HCT-116 colon was greater than 100 µM each time.
`CC1(C)CCCCCCC2CC2CCCCCC(C)(C)C1=O` (configuration not stated): the TGI with BT-549 breast, with NCI-H226 lung, in the assay with MDA-MB-435, in the assay on HS 578T breast, in the assay on OVCAR-8 ovarian and in the assay with HCT-15 colon was greater than 100 µM each time. The TGI was greater than 100 µM in the assay with UACC-257 melanoma; greater than 100 µM with DU-145 prostate; greater than 100 µM in the assay on SNB-19 CNS; 70.1 µM in the assay on RPMI-8226 leukemia; greater than 100 µM with MALME-3M melanoma; greater than 100 µM with MDA-N. Besides, the TGI with T-47D breast, in the assay with SK-OV-3 ovarian, in the assay with IGROV1 ovarian, in the assay with SK-MEL-5 melanoma, in the assay with HOP-62 NSCLC and in the assay on HOP-92 NSCLC was greater than 100 µM in each case. The TGI in the assay with HCT-116 colon was greater than 100 µM.
With `Cc1sc(Nc2ccccc2[N+](=O)[O-])c(C#N)c1C`, the TGI in the assay on BT-549 breast is 57.9 µM; with NCI-H226 lung, greater than 100 µM; in the assay with MCF7 breast, greater than 100 µM; in the assay with MDA-MB-435, greater than 100 µM; in the assay on OVCAR-8 ovarian, greater than 100 µM; in the assay on HCT-15 colon it was greater than 100 µM. For the same molecule, the TGI in the assay on UACC-257 melanoma was greater than 100 µM; in the assay with DU-145 prostate, greater than 100 µM; with SNB-19 CNS, 61.9 µM; with RPMI-8226 leukemia it was greater than 100 µM; in the assay with MALME-3M melanoma it was greater than 100 µM; with MDA-N, greater than 100 µM. In addition, the TGI in the assay on T-47D breast was greater than 100 µM; in the assay with SK-OV-3 ovarian, greater than 100 µM; with HOP-62 NSCLC it was 76.2 µM; in the assay on HOP-92 NSCLC, 53 µM; in the assay with HCT-116 colon, greater than 100 µM.
Consider `Cc1cc(O)c(C=NC(=S)c2ccccc2)c(=O)o1`, for which the TGI with BT-549 breast, with NCI-H226 lung, with MCF7 breast, in the assay with MDA-MB-435, with OVCAR-8 ovarian and in the assay on HCT-15 colon was greater than 100 µM throughout. Further, the TGI with UACC-257 melanoma, in the assay with DU-145 prostate, in the assay on SNB-19 CNS, in the assay with MDA-N, with T-47D breast and in the assay with SK-OV-3 ovarian was greater than 100 µM each time. For the same molecule, the TGI in the assay on IGROV1 ovarian, in the assay with SK-MEL-5 melanoma, in the assay with HOP-62 NSCLC, in the assay on HOP-92 NSCLC and in the assay on HCT-116 colon was greater than 100 µM in each case.
Consider `Nc1ncnc2c1ncn2C1C=CC(COS(N)(=O)=O)C1` (configuration not stated), for which the TGI in the assay with NCI-H226 lung, in the assay on MCF7 breast, in the assay with MDA-MB-435, in the assay on HS 578T breast, in the assay with OVCAR-8 ovarian and in the assay on HCT-15 colon was greater than 100 µM in each case. The TGI in the assay with UACC-257 melanoma, in the assay with DU-145 prostate, in the assay with SNB-19 CNS, in the assay on RPMI-8226 leukemia, in the assay with MALME-3M melanoma and in the assay on MDA-N was greater than 100 µM each time. Moreover, the TGI in the assay on T-47D breast is greater than 100 µM; in the assay on SK-OV-3 ovarian it was greater than 100 µM; with IGROV1 ovarian, greater than 100 µM; with SK-MEL-5 melanoma, greater than 100 µM; in the assay with HOP-62 NSCLC, greater than 100 µM; in the assay with HOP-92 NSCLC, 87.3 µM. For the same molecule, in the assay with HCT-116 colon, the TGI is greater than 100 µM.
